Consider five compounds from PMC10672402 (Marine Drugs, 2023).

Assay [1] addresses T1, acetylcholinesterase (AChE) (Homo sapiens, UniProt P22303).
T1 construct: purchased Solarbio, Beijing, China
As to the kind of experiment: acetylcholinesterase (AChE) inhibition, modified Ellman method. As to conditions: concentration of 50 μg/mL; read-out: inhibition rate against AChE. In kind it is biochemical.

Another assay has as its target T2, pancreatic lipase (PL) (Homo sapiens, UniProt P16233).
T2 sequence (P16233 17-465): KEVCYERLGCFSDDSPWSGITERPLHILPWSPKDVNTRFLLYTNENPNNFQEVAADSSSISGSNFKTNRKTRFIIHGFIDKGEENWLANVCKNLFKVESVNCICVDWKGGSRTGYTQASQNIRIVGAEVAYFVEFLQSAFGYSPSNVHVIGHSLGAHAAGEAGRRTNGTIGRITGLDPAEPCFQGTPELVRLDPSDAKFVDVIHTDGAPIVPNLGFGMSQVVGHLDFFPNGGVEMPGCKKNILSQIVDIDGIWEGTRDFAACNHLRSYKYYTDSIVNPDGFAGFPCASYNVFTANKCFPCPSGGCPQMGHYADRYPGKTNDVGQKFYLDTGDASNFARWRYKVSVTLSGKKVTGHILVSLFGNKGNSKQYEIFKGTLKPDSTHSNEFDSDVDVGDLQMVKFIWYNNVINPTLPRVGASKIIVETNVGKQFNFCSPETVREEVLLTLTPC
As to the kind of experiment: pancreatic lipase (PL) inhibitory assay. In kind it is biochemical.

T1 sequence (P22303 32-614, species assumed): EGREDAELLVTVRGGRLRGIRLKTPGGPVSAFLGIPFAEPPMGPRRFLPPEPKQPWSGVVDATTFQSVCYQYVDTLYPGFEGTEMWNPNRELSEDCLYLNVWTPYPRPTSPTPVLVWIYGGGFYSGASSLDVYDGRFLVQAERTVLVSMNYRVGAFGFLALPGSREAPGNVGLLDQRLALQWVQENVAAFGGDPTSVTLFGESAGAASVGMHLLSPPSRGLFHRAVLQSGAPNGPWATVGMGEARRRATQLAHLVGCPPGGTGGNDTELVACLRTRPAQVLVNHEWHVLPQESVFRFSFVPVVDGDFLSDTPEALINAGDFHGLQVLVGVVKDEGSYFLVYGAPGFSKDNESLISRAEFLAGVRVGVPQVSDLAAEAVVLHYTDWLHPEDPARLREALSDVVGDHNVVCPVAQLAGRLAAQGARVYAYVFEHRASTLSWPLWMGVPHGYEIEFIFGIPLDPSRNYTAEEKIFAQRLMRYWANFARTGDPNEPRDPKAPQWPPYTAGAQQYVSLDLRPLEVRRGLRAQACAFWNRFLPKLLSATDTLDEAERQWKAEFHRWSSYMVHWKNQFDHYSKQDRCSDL

For the compound `CCC(C)C1(O)OC(C)C2(OC)C(=O)C(C)=C(OC)C12` (centres unmarked) [Compound 1, asperpentenone B], in assay [1], the inhibition (in general, the drop in the measured response relative to a control, in per cent) at 50 µg/mL lay within 20 to 26%. As to `C/C=C/C=C/[C@@H]1Cc2c(CC(=O)O)c(O)cc(O)c2O1` [Compound 3, asperpentenone D], the IC50 (usually the concentration that gives 50% inhibition) on pancreatic lipase (PL) was 127 µM. As for `CCC(C)C(=O)Cc1oc(=O)c(C)c(O)c1C` (centres unmarked) [Compound 10, paecilpyrone A], in assay [1], the inhibition at 50 µg/mL lay in the range of 20 to 26%. In the case of `COC(=O)Cc1cccc(O)c1` [Compound 13, methyl-hydroxyphenylaceta], in assay [1], the inhibition at 50 µg/mL is 20 to 26%. Still for that read-out and setting: the figure for `COc1cc(/C=C/C(=O)O)ccc1O` [Compound 14, trans-ferulic acid] is 20 to 26%.
